Key:
Test in all cases: relative viability (nuclei count vs DMSO), 5 days (fraction); higher = more cells survive
[1] = compound: Nc1ncn([C@H]2C[C@H](O)[C@@H](CO)O2)c(=O)n1 [Decitabine] + C[C@@H](Oc1cc(-c2cnn(C3CCNCC3)c2)cnc1N)c1c(Cl)ccc(F)c1Cl [Crizotinib] (partner 1 µM)
Outline: (§1)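 Medians of duplicate plates are given as relative viability. That measure is the nuclei count in treated wells divided by the count in vehicle wells. Counts were taken on 4× images of lung cancer cell lines in 1536-well plates, 5 days after pin-tool dosing the day after seeding with one drug alone or a fixed anchor-drug dose plus five library-drug doses (not always all listed) in √10 steps.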

[2] = compound: O=C(C[C@H]1NCCC[C@@H]1O)Cn1cnc2cc(Br)c(Cl)cc2c1=O (racemic) [Halofuginone] + C[C@]1(O)C[C@@H](c2nc(-c3ccc4ccc(-c5ccccc5)nc4c3)c3c(N)nccn32)C1 [Linsitinib] (partner 1 µM)
Outline: as §1

[3] = compound: COc1cc2c(Oc3ccc4[nH]c(C)cc4c3F)ncnc2cc1OCCCN1CCCC1 [Cediranib] + O=C(CCCCCCC(=O)Nc1ccccc1)NO [Vorinostat] (partner 1 µM)
Outline: as §1

[4] = compound: COc1cc2c(Oc3ccc4[nH]c(C)cc4c3F)ncnc2cc1OCCCN1CCCC1 [Cediranib] + C[C@@H](Oc1cc(-c2cnn(C3CCNCC3)c2)cnc1N)c1c(Cl)ccc(F)c1Cl [Crizotinib] (partner 1 µM)
Outline: as §1

| Cell Line | relative viability ([1]; first compound 0.1265 µM) | relative viability ([1]; first compound 0.4 µM) | relative viability ([1]; first compound 1.265 µM) | relative viability ([1]; first compound 4 µM) | relative viability ([2]; first compound 0.001 µM) | relative viability ([2]; first compound 0.003162 µM) | relative viability ([2]; first compound 0.01 µM) | relative viability ([2]; first compound 0.03162 µM) | relative viability ([2]; first compound 0.1 µM) | relative viability ([3]; first compound 0.04 µM) | relative viability ([3]; first compound 0.1265 µM) | relative viability ([3]; first compound 0.4 µM) | relative viability ([3]; first compound 1.265 µM) | relative viability ([3]; first compound 4 µM) | relative viability ([4]; first compound 0.04 µM) | relative viability ([4]; first compound 0.4 µM) | relative viability ([4]; first compound 1.265 µM) | relative viability ([4]; first compound 4 µM) | relative viability ([1]; first compound 0.04 µM) | relative viability ([4]; first compound 0.1265 µM) |
| --- | --- | --- | --- | --- | --- | --- | --- | --- | --- | --- | --- | --- | --- | --- | --- | --- | --- | --- | --- | --- |
| HCC-827 | 0.396 | 0.355 | 0.262 | 0.272 | 0.968 | 0.983 | 0.978 | 1.02 | 0.892 | 0.847 | 0.574 | 0.846 | 0.729 | 1.12 | 0.931 | 0.869 | 0.951 | 0.976 | – | – |
| NCI-H322M | 0.661 | 0.673 | 0.36 | 0.363 | 0.919 | 1.02 | 0.907 | 1.04 | 0.926 | 0.876 | 1.05 | 0.818 | 0.983 | 0.871 | 0.894 | 0.887 | 0.904 | 0.945 | 0.724 | 1.05 |
| ChaGo-K-1 | 0.857 | 0.631 | 0.6 | 0.605 | – | – | – | – | – | 0.719 | 0.377 | 0.719 | 0.757 | 0.808 | 1.08 | 1.08 | 1.14 | 0.874 | 0.962 | – |
| BEN | 0.786 | 0.623 | 0.469 | 0.453 | 0.965 | 0.912 | 1.03 | 0.841 | 0.352 | 0.669 | 0.445 | 0.592 | 0.552 | 0.588 | 1.19 | 0.971 | 0.824 | 0.816 | 0.914 | 0.662 |
| NCI-H2347 | 0.511 | 0.549 | 0.474 | 0.469 | 1.06 | 1.05 | 0.902 | 1.04 | 0.777 | 0.693 | 0.621 | 0.538 | 0.577 | 0.512 | 0.672 | 0.794 | 0.865 | 0.675 | 0.691 | 0.698 |
| LOU-NH91 | 0.683 | 0.615 | 0.613 | 0.656 | 0.97 | 0.977 | 0.97 | 0.977 | 0.842 | 0.898 | 0.696 | 0.873 | 0.823 | 0.857 | 0.739 | 0.713 | 0.727 | 0.653 | 0.509 | 0.767 |
| NCI-H2228 | 0.394 | 0.367 | 0.199 | 0.286 | 0.589 | 0.926 | 0.69 | 0.394 | 0.199 | 0.719 | 0.763 | 0.633 | 0.563 | 0.529 | 0.54 | 0.545 | 0.419 | 0.327 | 0.524 | 0.562 |
| NCI-H2342 | – | – | – | – | – | – | – | – | – | 0.712 | 0.791 | 0.733 | 0.613 | 0.758 | – | – | – | – | – | – |
| HCC-366 | 0.362 | 0.121 | 0.102 | 0.0419 | 0.638 | 0.69 | 0.692 | 0.618 | 0.126 | 0.346 | 0.401 | 0.29 | 0.287 | 0.394 | 0.629 | 0.423 | 0.466 | 0.788 | 0.237 | 0.574 |

— the supplement of paper PMC10307832
